Source: PubChem BioAssay (NCI)
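Tested at 5 concentrations; 48 h exposure; 96-well plates; endpoints linearly interpolated, else capped at highest concentration. TGI denotes the concentration required for complete inhibition of growth.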

Columns and labels:
Test in all cases: NCI anticancer screen, dose series, 48 h
[1] = tested on: SNB-75 CNS
[2] = tested on: OVCAR-3 ovarian
[3] = tested on: HCT-15 colon
[4] = tested on: HOP-92 NSCLC
[5] = tested on: SF-539 CNS
[6] = tested on: UACC-257 melanoma
[7] = tested on: SF-295 CNS
[8] = tested on: A498 renal
[9] = tested on: UO-31 renal
[10] = tested on: HT29 colon
[11] = tested on: ACHN renal
[12] = tested on: NCI-H460 lung
[13] = tested on: MOLT-4 leukemia
[14] = tested on: BT-549 breast
[15] = tested on: NCI-H522 lung
[16] = tested on: MALME-3M melanoma
[17] = tested on: SW-620 colon
[18] = tested on: NCI-H226 lung
[19] = tested on: K-562 leukemia
[20] = tested on: HCT-116 colon
[21] = tested on: U251 CNS
[22] = tested on: RXF 393 renal
[23] = tested on: NCI/ADR-RES ovarian
[24] = tested on: OVCAR-8 ovarian
[25] = tested on: NCI-H23 lung
[26] = tested on: SK-MEL-28 melanoma
[27] = tested on: HOP-62 NSCLC
[28] = tested on: CCRF-CEM leukemia
[29] = tested on: PC-3 prostate
[30] = tested on: CAKI-1 renal
[31] = tested on: TK-10 renal
[32] = tested on: DU-145 prostate
[33] = tested on: KM12 colon
[34] = tested on: RPMI-8226 leukemia
[35] = tested on: IGROV1 ovarian
[36] = tested on: UACC-62 melanoma
[37] = tested on: T-47D breast
[38] = tested on: MDA-MB-231 breast
[39] = tested on: SR leukemia
[40] = tested on: SK-MEL-2 melanoma
[41] = tested on: MDA-N
[42] = tested on: COLO 205 colon
[43] = tested on: HS 578T breast
[44] = tested on: SF-268 CNS
[45] = tested on: HCC-2998 colon
[46] = tested on: OVCAR-5 ovarian
[47] = tested on: MCF7 breast
[48] = tested on: 786-0 renal
[49] = tested on: SK-MEL-5 melanoma
[50] = tested on: MDA-MB-435
[51] = tested on: HL-60(TB) leukemia
[52] = tested on: LOX IMVI melanoma
[53] = tested on: EKVX NSCLC
[54] = tested on: A549 NSCLC
[55] = tested on: SN12C renal
[56] = tested on: HOP-18 NSCLC
[57] = tested on: SK-OV-3 ovarian
[58] = tested on: SNB-19 CNS
[59] = tested on: M19-MEL melanoma
[60] = tested on: OVCAR-4 ovarian
[61] = tested on: DLD-1 colon
[62] = tested on: DMS 114 small cell lung
[63] = tested on: SNB-78 CNS
[64] = tested on: M14 melanoma

## Nc1nccc(NCC2(CO)CCC2)n1
[1]
  TGI: > 100 µM
[2]
  TGI: > 100 µM
[3]
  TGI: > 100 µM
[4]
  TGI: > 100 µM
[5]
  TGI: > 100 µM
[6]
  TGI: > 100 µM
[7]
  TGI: > 100 µM
[8]
  TGI: > 100 µM
[9]
  TGI: > 100 µM
[10]
  TGI: > 100 µM
[11]
  TGI: > 100 µM
[12]
  TGI: > 100 µM
[13]
  TGI: > 100 µM
[14]
  TGI: > 100 µM
[15]
  TGI: > 100 µM
[16]
  TGI: > 100 µM
[17]
  TGI: > 100 µM
[18]
  TGI: > 100 µM
[19]
  TGI: > 100 µM
[20]
  TGI: > 100 µM
[21]
  TGI: > 100 µM
[22]
  TGI: > 100 µM
[23]
  TGI: > 100 µM
[24]
  TGI: > 100 µM
[25]
  TGI: > 100 µM
[26]
  TGI: > 100 µM
[27]
  TGI: > 100 µM
[28]
  TGI: > 100 µM
[29]
  TGI: > 100 µM
[30]
  TGI: > 100 µM
[31]
  TGI: 77.4 µM
[32]
  TGI: > 100 µM
[33]
  TGI: > 100 µM
[34]
  TGI: > 100 µM
[35]
  TGI: > 100 µM
[36]
  TGI: > 100 µM
[37]
  TGI: > 100 µM
[38]
  TGI: > 100 µM
[39]
  TGI: > 100 µM
[40]
  TGI: > 100 µM
[41]
  TGI: > 100 µM
[42]
  TGI: > 100 µM
[43]
  TGI: > 100 µM
[44]
  TGI: > 100 µM
[45]
  TGI: > 100 µM
[46]
  TGI: > 100 µM
[47]
  TGI: > 100 µM
[48]
  TGI: > 100 µM
[49]
  TGI: > 100 µM
[50]
  TGI: > 100 µM
[51]
  TGI: > 100 µM
[52]
  TGI: > 100 µM
[53]
  TGI: > 100 µM
[54]
  TGI: > 100 µM
[55]
  TGI: > 100 µM

## CSc1nc(NC2OC(COC(C)=O)C(OC(C)=O)C(OC(C)=O)C2OC(C)=O)c(N=C(C)C(C)=O)c(=O)[nH]1 (centres undefined)
[2]
  TGI: > 100 µM
[4]
  TGI: > 100 µM
[5]
  TGI: > 100 µM
[6]
  TGI: > 100 µM
[7]
  TGI: > 100 µM
[9]
  TGI: > 100 µM
[10]
  TGI: > 100 µM
[56]
  TGI: > 100 µM
[57]
  TGI: > 100 µM
[13]
  TGI: > 100 µM
[58]
  TGI: > 100 µM
[16]
  TGI: > 100 µM
[17]
  TGI: > 100 µM
[18]
  TGI: > 100 µM
[19]
  TGI: > 100 µM
[20]
  TGI: > 100 µM
[24]
  TGI: > 100 µM
[59]
  TGI: > 100 µM
[27]
  TGI: > 100 µM
[28]
  TGI: > 100 µM
[60]
  TGI: > 100 µM
[30]
  TGI: > 100 µM
[61]
  TGI: > 100 µM
[31]
  TGI: > 100 µM
[62]
  TGI: > 100 µM
[33]
  TGI: > 100 µM
[34]
  TGI: > 100 µM
[35]
  TGI: > 100 µM
[36]
  TGI: > 100 µM
[40]
  TGI: > 100 µM
[42]
  TGI: > 100 µM
[45]
  TGI: > 100 µM
[48]
  TGI: > 100 µM
[49]
  TGI: > 100 µM
[51]
  TGI: > 100 µM
[63]
  TGI: > 100 µM
[53]
  TGI: > 100 µM
[64]
  TGI: > 100 µM
[54]
  TGI: > 100 µM
